Our source for the EC50 and AC50 values is ChEMBL document CHEMBL1201862, “PubChem BioAssay data set” (2004).

Activity calls are given as the source filed them. A value given as a limit tells only on which side of the number the result lay.

Data set [1] can be described thus: inhibitors of intracellular T. cruzi replication, confirmation, NIH3T3 host cells, beta-gal luminescence (AID 2044).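 Note: intracellular parasites grown in NIH/3T3 mouse fibroblasts as host cells; luminescent beta-galactosidase reporter signal from transgenic T. cruzi replicating inside host cells; inhibitors lower the luminescence signal.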 It is filed as functional, cell-based.
A short description of data set [2]: cytotoxicity toward NIH3T3 fibroblasts, dose response, counter-screen, cell-based, ATP luminescence, mouse fibroblasts (AID 2010).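 Note: cells exposed to compound for about 90 hours before reading.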 The format is functional. On the technique in general: A counterscreen serves to expose hits that act by an unwanted route or on another target.
Data set [3] concerns the target T1, Heat shock factor protein 1 (Mus musculus, UniProt P38532).
T1 sequence (P38532 whole entry): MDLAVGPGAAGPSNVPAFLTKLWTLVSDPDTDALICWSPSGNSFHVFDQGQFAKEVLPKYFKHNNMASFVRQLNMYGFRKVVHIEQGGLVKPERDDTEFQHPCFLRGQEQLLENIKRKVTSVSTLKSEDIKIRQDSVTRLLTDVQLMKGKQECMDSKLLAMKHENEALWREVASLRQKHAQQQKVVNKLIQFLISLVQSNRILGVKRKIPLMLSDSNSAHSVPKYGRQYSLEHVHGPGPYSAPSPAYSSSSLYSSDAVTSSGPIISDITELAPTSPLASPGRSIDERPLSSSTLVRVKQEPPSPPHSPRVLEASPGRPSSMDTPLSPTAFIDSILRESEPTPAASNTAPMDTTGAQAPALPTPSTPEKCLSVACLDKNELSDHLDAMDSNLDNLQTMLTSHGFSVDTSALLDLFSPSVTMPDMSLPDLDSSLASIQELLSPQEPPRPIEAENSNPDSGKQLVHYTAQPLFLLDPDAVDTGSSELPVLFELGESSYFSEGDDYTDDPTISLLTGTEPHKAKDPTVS
Put plainly: inhibition of MG132-induced HSE-luciferase signal, confirmation, cell-based, NIH3T3, luminescence, dose retest (AID 2382).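 Note: NIH3T3 fibroblasts with HSF1-driven luciferase reporter stressed by proteasome inhibitor MG132; luminescence from HSF1-driven luciferase expression after 8 hours of MG132 stress.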 It is filed as functional.

The next data set concerns the target Cytochrome P450 2C19 (Homo sapiens, UniProt P33261). Put plainly: Cytochrome panel assay with activity outcomes. Panel member name: p450-cyp2c19 Compounds with AC50 equal or less than 10 uM are considered active. The format is functional.
The test system of data set [4] is Streptococcus sp. 'group A'. Put plainly: growth inhibition of control SK(-) GAS strain, dose response, counter-screen for streptokinase expression inhibitor project, luminescence, kanamycin, BacTiterGlo, confirmation (AID 1900). It is filed as functional, organism-based.
The test system of a further data set is Streptococcus. Put plainly: Group A Streptococcus viability loss, dose response, counter-screen for streptokinase expression inhibitor project, luminescence, BacTiterGlo (AID 1915).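 Note: potency for reduction of bacterial viability or growth.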 The format is functional, organism-based.
Data set [5] has as its target FAD-linked sulfhydryl oxidase ALR (Homo sapiens, UniProt P55789). Put plainly: inhibitors of human ALR sulfhydryl oxidase, dose response, biochemical, H2O2 detection, luminescence, cherry-pick (AID 493248).
Another data set has as its system INS1. Put plainly: beta cell apoptosis inhibitors, cytokine rescue, dose response, luminescence, retest (AID 449756).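 Note: cell death triggered by IL-1 beta plus TNF-alpha plus IFN-gamma mixture; protective hits raise ATP signal compared with cytokine alone wells.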 It is filed as functional, cell-based. The following applies: Rattus norvegicus.
The nature of data set [6]: inhibitors of firefly luciferase expression or activity, dose response, H4 neuroglioma cells, luminescence (AID 1990). It is filed as functional, cell-based.
Data set [7] can be described thus: Luminescence Cell-Based Dose Response HTS to Identify Inhibitors of 5'UTR Stem-Loop Driven Prion Protein mRNA Translation in H4 Neuroglioblastoma Cells. [Related pubchem assays: 1827 (Project Summary), 1813 (Primary HTS)]. The format is functional.
Data set [8] can be described thus: inhibitors of SNCA 5'UTR-driven reporter translation, confirmation, H4 neuroglioma cells, luminescence (AID 1988). It is filed as functional, cell-based.

Chain of FAD-linked sulfhydryl oxidase ALR (P55789 whole entry): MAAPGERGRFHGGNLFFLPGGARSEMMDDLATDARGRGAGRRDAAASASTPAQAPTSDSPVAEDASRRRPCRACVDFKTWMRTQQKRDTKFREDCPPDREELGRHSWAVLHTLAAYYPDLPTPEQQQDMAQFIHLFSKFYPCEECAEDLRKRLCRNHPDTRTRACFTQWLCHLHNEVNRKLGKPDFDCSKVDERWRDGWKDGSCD
Chain of Cytochrome P450 2C19 (P33261 whole entry): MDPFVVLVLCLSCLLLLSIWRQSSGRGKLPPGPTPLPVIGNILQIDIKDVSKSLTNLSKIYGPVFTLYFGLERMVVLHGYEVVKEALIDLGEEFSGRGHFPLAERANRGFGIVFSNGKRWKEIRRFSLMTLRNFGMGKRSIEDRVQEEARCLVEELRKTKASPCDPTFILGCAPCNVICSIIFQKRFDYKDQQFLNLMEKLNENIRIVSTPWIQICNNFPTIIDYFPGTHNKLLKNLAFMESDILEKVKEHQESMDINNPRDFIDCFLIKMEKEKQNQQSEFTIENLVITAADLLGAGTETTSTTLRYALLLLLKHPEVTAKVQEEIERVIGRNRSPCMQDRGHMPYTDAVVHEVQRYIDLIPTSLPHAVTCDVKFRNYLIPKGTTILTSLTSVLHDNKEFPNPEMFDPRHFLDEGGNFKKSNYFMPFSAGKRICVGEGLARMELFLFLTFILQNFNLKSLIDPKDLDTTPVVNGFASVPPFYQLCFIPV

One may read the EC50 as the concentration needed to bring the measured effect to its halfway point. In the case of `O=C(CSc1oc(-c2cccs2)nc1S(=O)(=O)c1ccccc1)NC1CCCCC1`, the EC50 in data set [1] was 1.13 µM (active); in data set [2] it was > 60 µM (inconclusive). For the compound `CCOC(=O)N1CCN(c2nc(C)c3c(n2)CCCC3=O)CC1`, in data set [3], the EC50 is given as > 195 µM (not active).

Regarding `COc1ccc(CNC(=O)c2ccc(CS(=O)(=O)c3ccc(Br)cc3)o2)cc1`, the EC50 in [3] was > 195 µM (not active). As usually defined, the AC50 is the midpoint of the concentration-response curve, whichever way the signal moves. On to `c1ccc(-n2ncc3c(NCCCN4CCOCC4)ncnc32)cc1`, for which the AC50 at Cytochrome P450 2C19 (read-out: AC50) is 15.8 µM (inconclusive). As for `CCC1=NN2C(=N)/C(=C\c3cccn3-c3ccc(C)c(C)c3)C(=O)N=C2S1`, the EC50 was 3.34 µM (active) in data set [4] and 6.01 µM (active) with Streptococcus. In the case of `COc1cc(/C=C2/C(=O)ON=C2C)cc(Cl)c1O`, the AC50 in data set [5] is 16 µM (active). With `CS(=O)(=O)Nc1nc2ccccc2[nH]1`, the concentration giving a half-maximal response (EC50) in [3] was > 195 µM (not active).

Regarding `CC1=NN(c2ccccc2)C(=O)C1/C=C1/C(=O)NC(=O)N(c2cc(C)cc(C)c2)C1=O` (centres undefined), the AC50 in data set [5] was 1.76 µM (active). Turning to `COc1ccc(CNC(=O)OCCN2CCN(S(=O)(=O)c3ccc(C)cc3)CCC2=O)cc1`, the EC50 in data set [3] was > 195 µM (not active). For `COc1ccc(CCN(C)CCC(=O)Nc2ccc(C)cc2)cc1OC`, the concentration for a half-maximal effect (EC50) is 0.227 µM (active) in data set [1] and > 60 µM (not active) in data set [2]. Regarding `CCc1ccc(C(=O)NNc2cc(Cl)ccc2Cl)cc1`, the AC50 in the data set with INS1 is 6.64 µM (active).

Turning to `COc1ccccc1N1CCN(C(S)=Nc2ccc(F)cc2)CC1`, the EC50 in data set [3] is 54.6 µM (active).

For `CCN(CC)S(=O)(=O)c1cc(C)ccc1N=C(S)Nc1cccnc1`, in the data set on INS1, the AC50 was 43.2 µM (active). `CCN(CC)c1ccc(NC(=O)C2CC3CCC2C3)cc1` (centres undefined): in [5], the AC50 was 0.431 µM (active).

As to `CCN(CCCNS(=O)(=O)c1ccc2c(c1)CCN2C(C)=O)c1cccc(C)c1`, in [5], the AC50 is 2.81 µM (active). `Cc1ccc(S(=O)(=O)CCC(=O)Nc2ccc(Br)cc2)cc1`: in data set [3], the EC50 is > 195 µM (not active). Regarding `O=C(NCC(c1ccco1)N1CCc2ccccc21)c1ccccc1F` (centres undefined), the AC50 in data set [5] was 1.67 µM (active). Take `Cc1ccc(NC(S)=NC2CC3CCC(C2)N3Cc2ccco2)cc1C` (centres undefined): in data set [3], the half-maximal effective concentration (EC50) is recorded as > 195 µM (not active). Consider `O=C(CCn1c(=S)oc2ccccc21)NC1CCCCCC1`, for which the EC50 in [3] is reported as > 195 µM (not active). As to `O=C(NCc1ccc(C(=O)O)cc1)OCc1ccccc1`, the EC50 in [3] is > 195 µM (not active). The same measure, in the same setting: with `COc1ccc(Nc2ncnc3sc(-c4ccccc4)cc23)cc1` the figure was > 195 µM (not active).

As to `Cc1ccc(C(=O)N(Cc2cccnc2)Cc2cc3cc(C)ccc3n3nnnc23)cc1`, the EC50 in data set [1] was 1.29 µM (active); in data set [2], > 60 µM (not active). Consider `Brc1ccc2c(c1)[C@H]1OCC[C@H]1[C@@H](c1cccs1)N2`, for which the 50% effective concentration (EC50) was > 60 µM (not active) in [6], 17.2 µM (active) in data set [7] and 13.2 µM (active) in data set [8].

Turning to `COc1ccccc1NS(=O)(=O)c1cccc(NC(=O)c2[nH]c(C)c(C(C)=O)c2C)c1`, in the data set on INS1, the AC50 is 31.1 µM (active). On to `Cc1cccc(C(=O)NC(=S)N2CCN(c3ccc([N+](=O)[O-])cc3)CC2)c1`, for which the concentration for a half-maximal effect (EC50) in [3] was > 195 µM (not active). As to `CC(=O)Nc1ccc2c(c1)OCCO2`, the AC50 on Cytochrome P450 2C19 (read-out: AC50) is 17.8 µM (inconclusive). `CCOC(=O)c1cc(-c2ccccc2)sc1NC(=O)CN1C(=O)NC(CC)(c2ccccc2)C1=O` (centres undefined): the concentration giving a half-maximal response (EC50) in [1] is 2.17 µM (active); in data set [2], > 60 µM (inconclusive). On the same counts, the results for `COc1ccc(/C=C2\SC(=S)N(CCCC(=O)N3CCN(C)CC3)C2=O)cc1` are 1.06 µM (active) and 8.7 µM (active).

As for `Cc1ccc(S(=O)(=O)CC(=O)Nc2ccc(S(=O)(=O)Nc3onc(C)c3C)cc2)cc1`, the EC50 in data set [3] is listed as > 195 µM (not active).

With `COc1ccccc1C(=O)NCCn1cc(SCC(=O)Nc2cc(C)on2)c2ccccc21`, the half-maximal effective concentration (EC50) was 16.2 µM (active) in data set [6], > 120 µM (not active) in data set [7] and > 120 µM (not active) in data set [8].

Turning to `C=CCn1c(S)nnc1-c1cccn(Cc2ccccc2)c1=O`, the EC50 in data set [6] is > 120 µM (not active); in data set [7], 27.4 µM (active); in [8], > 120 µM (not active). Besides, the AC50 on Cytochrome P450 2C19 (read-out: AC50) was 25.1 µM (inconclusive).

Turning to `CN1C2CCC1CC(OC(=O)c1ccc(Cl)cc1)C2` (centres undefined), the AC50 on Cytochrome P450 2C19 (read-out: AC50) is 5.62 µM (inconclusive).

`O=C(NCc1ccco1)c1ccccc1NS(=O)(=O)c1ccc(Cl)s1`: the AC50 in data set [5] was 2.1 µM (active). With `O=C(Cn1cc(C(=O)c2ccco2)c2ccccc21)NC1CCCCC1`, the EC50 in data set [3] is recorded as > 195 µM (not active). Consider `Nc1ccc(Cl)c(S(=O)(=O)Nc2ccc(Cl)cc2)c1`, for which the EC50 in data set [1] was 39.7 µM (active); in data set [2], > 60 µM (not active). Take `Cc1ccc(-c2nc(-c3cccnc3)sc2CC(=O)O)cc1`: the AC50 in data set [5] is 3.45 µM (active). As to `Oc1[nH]c2ccc(Br)cc2c1N=Nc1ccc(C(F)(F)F)cn1`, the EC50 in [1] is 2.33 µM (active); in data set [2], > 60 µM (not active). For `COc1cc(OC)cc(-c2cc(N3C(=O)Nc4ccccc4N3O)[nH]n2)c1`, the EC50 in [3] was 73.7 µM (active). For the compound `O=C(Nc1ccc(-c2nc3ccccc3s2)cc1)C1=COCCO1`, the EC50 in data set [7] is 5.8 µM (active); in data set [8], 2.95 µM (active). On to `COC(=O)C1=CN(Cc2ccc(OC)c(OC)c2)C=C(C(=O)OC)C1c1cccc(OC)c1OC`, for which the EC50 in data set [1] is 0.384 µM (active); in data set [2], > 60 µM (not active). Turning to `COc1c(Cl)cc(Cl)cc1CNCCNCC(C)O` (centres undefined), the AC50 at Cytochrome P450 2C19 (read-out: AC50) was 14.1 µM (inconclusive). For `O=C(c1cc([N+](=O)[O-])ccc1N1CCCCC1)N1CCc2ccccc21`, the EC50 in [6] is > 120 µM (not active); in [7] it was > 120 µM (not active); in data set [8] it was 10.9 µM (active). Regarding `O=C(CC(Sc1ccc(Br)cc1)C(=O)O)c1ccc(F)cc1` (centres undefined), the values for the EC50 in [1] and in data set [2] were 2.1 µM (active) and > 30 µM (not active), respectively.

For the compound `O=C(CN1CCN(S(=O)(=O)c2ccc3ccccc3c2)CC1)NC(=O)NC1CCCCC1`, the EC50 in data set [6] is 13 µM (active); in data set [7], > 120 µM (not active); in data set [8], 46.8 µM (active). Take `Cc1cccc2cc(CN(Cc3cccs3)Cc3nnnn3Cc3ccccc3)c(O)nc12`: the EC50 in data set [1] is 2.68 µM (active); in data set [2], > 30 µM (not active). Consider `C1=C(c2ccccc2)CCN(c2[nH]cnc3ncnc2-3)C1`, for which the EC50 in [3] is given as > 195 µM (not active). In the case of `Cc1ccc2nc(Cl)c(-c3ccccc3)cc2c1`, the EC50 in [6], in data set [7] and in data set [8] was > 120 µM (not active) each time. In the case of `CCc1ccc(-[n+]2cc(-c3ccc(F)cc3)n3c2SCCC3)cc1`, the concentration at half-maximal activity (AC50) in the data set with INS1 is 0.429 µM (active).

For the compound `Cn1c(=O)[nH]c(=O)c2c1nc(CN1CCOCC1)n2CCCO`, at Cytochrome P450 2C19, the AC50 entry was “inconclusive”. For the compound `Cc1cc(C(=O)N2CCCC(Nc3ccc(C(C)C)cc3)C2)nn1C` (centres undefined), the AC50 in [5] is 6.69 µM (active). On to `Cc1c(Br)cnn1C(C)C(=O)N1CCN(c2ccc(F)cc2)CC1` (centres undefined), for which, in data set [5], the AC50 was 0.578 µM (active).

Take `c1ccc(CNc2ncnc3sc4c(c23)CCCC4)nc1`: in data set [5], the AC50 is 37.2 µM (active). The same measure, in the same setting: the figure for `Cc1cccc(N2CCN(C(=O)NC3CCCCC3)CC2C)c1` (centres undefined) is 6.6 µM (active); for `C/C(=N\Nc1ccc(Cl)c(C(=O)O)c1)c1cc2ccccc2o1` it is 0.138 µM (active).

With `C/C(=N\Nc1nc(C)cc(-c2ccccc2)n1)c1ccc(O)cc1`, the concentration at half-maximal activity (AC50) in the data set with INS1 was 0.993 µM (active). Take `O=C(N/N=C/c1ccccc1F)NC12CC3CC(CC(C3)C1)C2`: the EC50 in data set [1] is 2.78 µM (active); in data set [2] it was > 30 µM (not active).

Take `CC(=O)O[C@H]1CC[C@]2(C)[C@H]3CC=C4[C@@H]5[C@@H](C)[C@H](C)CC[C@]5(C(=O)O)CC[C@@]4(C)[C@]3(C)CC[C@H]2C1(C)C` [O-ACETYLURSOLIC ACID]: the values for the EC50 (in [4]; with Streptococcus) were 2.11 µM (active) and 3.26 µM (active), respectively.
